Tested on: sweet taste
Experiment: Sensory testing by a group of about 5 panelists (sweetness, licorice taste, lingering aftertaste)
Format: in vivo
Conditions: for Lingering: panelists' rating of lingering aftertaste on a scale from 1 to 10; for Licorice / Sweet: panelists' rating on a scale from 1 to 10
Procedure: Sensory testing was conducted by a group of about 5 panelists. […] The panelists rated the sweetness, licorice taste, and lingering aftertaste of Isomogroside IVE in comparison to Mogroside V on a scale from 1 to 10.

Q: For `C[C@H](CC[C@@H](O[C@@H]1O[C@H](CO[C@@H]2O[C@H](CO)[C@@H](O)[C@H](O)[C@H]2O)[C@@H](O)[C@H](O)[C@H]1O[C@@H]1O[C@H](CO)[C@@H](O)[C@H](O)[C@H]1O)C(C)(C)O)[C@H]1CC[C@@]2(C)[C@@H]3CC=C4[C@@H](CC[C@H](O[C@@H]5O[C@H](CO[C@@H]6O[C@H](CO)[C@@H](O)[C@H](O)[C@H]6O)[C@@H](O)[C@H](O)[C@H]5O)C4(C)C)[C@]3(C)[C@H](O)C[C@]12C` [Mogroside V, reference compound], which Lingering (250 ppm) is on record?
A: 4.6

Q: And the Licorice (250 ppm)?
A: 3.7

Q: What about the Sweet (250 ppm) of the same compound?
A: 5.1

Q: For `C[C@H](CC[C@@H](O[C@@H]1O[C@H](CO)[C@@H](O)[C@H](O)[C@H]1O[C@@H]1O[C@H](CO)[C@@H](O)[C@H](O)[C@H]1O)C(C)(C)O)[C@H]1CC[C@@]2(C)[C@@H]3CC=C4[C@@H](CC[C@H](O[C@@H]5O[C@H](CO)[C@@H](O[C@@H]6O[C@H](CO)[C@@H](O)[C@H](O)[C@H]6O)[C@H](O)[C@H]5O)C4(C)C)[C@]3(C)[C@H](O)C[C@]12C` [Isomogroside IVE, (1S,4R,9beta,11alpha,24R)-1-{[4-O-(beta-D-glucopyranosyl)-beta-D-glucopyranosyl]oxy}-11,25-dihydroxy-9,10,14-trimethyl-4,9-cyclo-9,10-secocholest-5-en-24-yl 2-O-beta-D-glucopyranosyl-beta-D-glucopyranoside], which “licorice taste and lingering aftertaste in comparison to Mogroside V” value (250 ppm, panelists' perception) is on record?
A: no statistically significant difference

Q: And the “sweetness in comparison to Mogroside V” value (250 ppm, panelists' perception)?
A: somewhat sweeter than Mogroside V

Q: And the Lingering (250 ppm)?
A: 5.4

Q: What about the Licorice (250 ppm) of the same compound?
A: 4.5

Q: And the Sweet (250 ppm)?
A: 7.0

Q: And the “times sweeter than sucrose” value (tasted at 250 ppm in a water base)?
A: 200-300 times

Reference: patent publication US20220017564A1, “MOGROSIDE COMPOUNDS AND USES THEREOF” (Firmenich SA, priority 2019, published 2022)
